Measurements from patent US9695205B2, “Amide compounds for treatment of complement mediated disorders” (Achillion Pharmaceuticals, Inc., priority 2014, dated 2017).

Target: Human factor D (Homo sapiens (Human), UniProt P00746)
Assay: Human Factor D Assay
Format: biochemical
Details: Human factor D 80 nM, substrate Z-L-Lys-SBzl and DTNB 100 μM each, pH 7.5
Protocol: Example 14. Human Factor D Assay
Human factor D (purified from human serum, Complement Technology, Inc.) at 80 nM final concentration is incubated with test compound at various concentrations for 5 minutes at room temperature in 50 mM Tris, 1M NaCl, pH 7.5. A synthetic substrate Z-L-Lys-SBzl and DTNB (Ellman's reagent) are added to final concentrations of 100 μM each. The increase in color is recorded at OD405 nm in a microplate in kinetic mode over 30 minutes with 30 second time points in a spectrofluorimeter. IC50 values are calculated by non-linear regression from the percentage of inhibition of complement factor D activity as a function of test compound concentration.

Sequence of Human factor D (P00746 26-253): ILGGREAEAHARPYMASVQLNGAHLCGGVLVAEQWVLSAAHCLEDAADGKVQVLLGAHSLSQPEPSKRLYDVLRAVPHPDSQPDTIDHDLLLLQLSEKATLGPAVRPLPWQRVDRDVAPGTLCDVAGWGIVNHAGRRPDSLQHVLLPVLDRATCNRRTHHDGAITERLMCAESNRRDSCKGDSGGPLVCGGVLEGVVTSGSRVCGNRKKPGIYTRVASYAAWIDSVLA

Structure (SMILES): CC(=O)c1cn(CC(=O)N2C[C@H](F)C[C@H]2C(=O)Nc2cccc(-c3ccccc3Cl)c2F)c2ccc(NC(=O)N3CCCC(F)(F)C3)cc12 [Compound 18, N-(3-acetyl-1-(2-((2S,4R)-2-(2′-chloro-2-fluorobiphenyl-3-ylcarbamoyl)-4-fluoropyrrolidin-1-yl)-2-oxoethyl)-1H-indol-5-yl)-3,3-difluoropiperidine-1-carboxamide]
- IC50: < 1000 nM

Structure (SMILES): CC(=O)c1cn(CC(=O)N2C[C@H](F)C[C@H]2C(=O)NCc2cccc(Cl)c2F)c2ccc(C(=O)N3CC=C(B(O)O)CC3)cc12 [Compound 38, 1-(3-acetyl-1-(2-((2S,4R)-2-(3-chloro-2-fluorobenzylcarbamoyl)-4-fluoropyrrolidin-1-yl)-2-oxoethyl)-1H-indole-5-carbonyl)-1,2,3,6-tetrahydropyridin-4-ylboronic acid]
- IC50: < 1000 nM

Structure (SMILES): CC(=O)c1cn(CC(=O)N2C[C@H](F)C[C@H]2C(=O)NCc2cccc(Cl)c2F)c2cc(C(=O)NCC3CCNC3)ccc12 (stereo partly drawn) [Compound 49, 3-acetyl-1-(2-((2S,4R)-2-(3-chloro-2-fluorobenzylcarbamoyl)-4-fluoropyrrolidin-1-yl)-2-oxoethyl)-N-(pyrrolidin-3-ylmethyl)-1H-indole-6-carboxamide]
- IC50: < 1000 nM

Structure (SMILES): CC(=O)c1cn(CC(=O)N2C[C@H](F)C[C@H]2C(=O)Nc2cccc(-c3ccccc3Cl)c2F)c2ccc(NC(=O)CC(F)(F)F)cc12 [Compound 36, (2S,4R)-1-(2-(3-acetyl-5-(3,3,3-trifluoropropanamido)-1H-indol-1-yl)acetyl)-N-(2′-chloro-2-fluorobiphenyl-3-yl)-4-fluoropyrrolidine-2-carboxamide]
- IC50: < 1000 nM

Structure (SMILES): CC(=O)c1cn(CC(=O)N2C[C@H](F)C[C@H]2C(=O)NCc2cccc(Cl)c2F)c2ccc(NC(=O)N3Cc4cncnc4C3)cc12 [Compound 22, N-(3-acetyl-1-(2-((2S,4R)-2-(3-chloro-2-fluorobenzylcarbamoyl)-4-fluoropyrrolidin-1-yl)-2-oxoethyl)-1H-indol-5-yl)-5H-pyrrolo[3,4-d]pyrimidine-6(7H)-carboxamide]
- IC50: < 1000 nM

Structure (SMILES): CC(=O)c1cn(CC(=O)N2C[C@H](F)C[C@H]2C(=O)NCc2cccc(Cl)c2F)c2ccc(NC(=O)NC3(C)CC3)cc12 [Compound 4, (2S,4R)-1-(2-(3-acetyl-5-(3-(1-methylcyclopropyl)ureido)-1H-indol-1-yl)acetyl)-N-(3-chloro-2-fluorobenzyl)-4-fluoropyrrolidine-2-carboxamide]
- IC50: < 1000 nM

Structure (SMILES): CC(=O)c1cn(CC(=O)N2C[C@H](F)C[C@H]2C(=O)NCc2cccc(Cl)c2F)c2cc(C(=O)NCC3CCN(C(=O)OC(C)(C)C)C3)ccc12 (stereo partly drawn) [Compound 50]
- IC50: < 1000 nM

Structure (SMILES): CC(=O)c1cn(CC(=O)N2C[C@H](F)C[C@H]2C(=O)NCc2cccc(Cl)c2F)c2ccc(NC(=O)N3CCCC3)cc12 [Compound 9, N-(3-acetyl-1-(2-((2S,4R)-2-(3-chloro-2-fluorobenzylcarbamoyl)-4-fluoropyrrolidin-1-yl)-2-oxoethyl)-1H-indol-5-yl)pyrrolidine-1-carboxamide]
- IC50: < 1000 nM

Structure (SMILES): NC(=O)c1nn(CC(=O)N2C[C@H](F)C[C@H]2C(=O)Nc2cccc(OC(F)(F)F)c2F)c2ccc(NC(=O)N3CCCC(F)(F)C3)cc12 [Compound 26, 5-(3,3-difluoropiperidine-1-carboxamido)-1-(2-((2S,4R)-4-fluoro-2-(2-fluoro-3-(trifluoromethoxy)phenylcarbamoyl)pyrrolidin-1-yl)-2-oxoethyl)-1H-indazole-3-carboxaide]
- IC50: < 1000 nM

Structure (SMILES): CC(=O)c1cn(CC(=O)N2C[C@H](F)C[C@H]2C(=O)NCc2cccc(Cl)c2F)c2ccc(NC(=O)OCC3CC3)cc12 [Compound 15, cyclopropylmethyl 3-acetyl-1-(2-((2S,4R)-2-(3-chloro-2-fluorobenzylcarbamoyl)-4-fluoropyrrolidin-1-yl)-2-oxoethyl)-1H-indol-5-ylcarbamate]
- IC50: < 1000 nM

Structure (SMILES): NC(=O)c1nn(CC(=O)N2C[C@H](F)C[C@H]2C(=O)Nc2cccc(-c3ncccc3Cl)c2F)c2ccc(NC(=O)N3CCCC(F)(F)C3)cc12 [Compound 29, 1-(2-((2S,4R)-2-(3-(3-chloropyridin-2-yl)-2-fluorophenylcarbamoyl)-4-fluoropyrrolidin-1-yl)-2-oxoethyl)-5-(3,3-difluoropiperidine-1-carboxamido)-1H-indazole-3-carboxamide]
- IC50: < 1000 nM

Structure (SMILES): CC(=O)c1cn(CC(=O)N2C[C@H](F)C[C@H]2C(=O)NCc2cccc(Cl)c2F)c2cc(C(=O)N3CCC(CN)C3)ccc12 (stereo partly drawn) [Compound 42, (2S,4R)-1-(2-(3-acetyl-6-(3-(aminomethyl)pyrrolidine-1-carbonyl)-1H-indol-1-yl)acetyl)-N-(3-chloro-2-fluorobenzyl)-4-fluoropyrrolidine-2-carboxamide]
- IC50: < 1000 nM

Structure (SMILES): CC(=O)c1cn(CC(=O)N2C[C@H](F)C[C@H]2C(=O)NCc2cccc(Cl)c2F)c2ccc(NC(=O)NCc3ccon3)cc12 [Compound 7, (2S,4R)-1-(2-(3-acetyl-5-(3-(isoxazol-3-ylmethyl)ureido)-1H-indol-1-yl)acetyl)-N-(3-chloro-2-fluorobenzyl)-4-fluoropyrrolidine-2-carboxamide]
- IC50: < 1000 nM

Structure (SMILES): CC(=O)c1cn(CC(=O)N2C[C@H](F)C[C@H]2C(=O)NCc2cccc(Cl)c2F)c2ccc(NC(=O)NC(C)C)cc12 [Compound 6, (2S,4R)-1-(2-(3-acetyl-5-(3-isopropylureido)-1H-indol-1-yl)acetyl)-N-(3-chloro-2-fluorobenzyl)-4-fluoropyrrolidine-2-carboxamide]
- IC50: < 1000 nM

Structure (SMILES): CC(=O)c1cn(CC(=O)N2C[C@H](F)C[C@H]2C(=O)NCc2cccc(Cl)c2F)c2ccc(NC(=O)NCc3nn[nH]n3)cc12 [Compound 2, (2S,4R)-1-(2-(5-(3-((2H-tetrazol-5-yl)methyl)ureido)-3-acetyl-1H-indo-1-yl)acetyl)-N-(3-chloro-2-fluorobenzyl)-4-fluoropyrrolidine-2-carboxamide]
- IC50: < 1000 nM

Structure (SMILES): NC(=O)c1nn(CC(=O)N2C[C@H](F)C[C@H]2C(=O)Nc2cccc(-c3ccccc3Cl)c2F)c2ccc(NC(=O)N3CCCC(F)(F)C3)cc12 [Compound 24, 1-(2-((2S,4R)-2-(2′-chloro-2-fluorobiphenyl-3-ylcarbamoyl)-4-fluoropyrrolidin-1-yl)-2-oxoethyl)-5-(3,3-difluoropiperidine-1-carboxamido)-1H-indazole-3-carboxamide]
- IC50: < 1000 nM

Structure (SMILES): NC(=O)c1nn(CC(=O)N2C[C@H](F)C[C@H]2C(=O)Nc2cccc(OC(F)(F)F)c2F)c2ccc(NC(=O)Nc3ccon3)cc12 [Compound 25, 1-(2-((2S,4R)-4-fluoro-2-(2-fluoro-3-(trifluoromethoxy)phenylcarbamoyl)pyrrolidin-1-yl)-2-oxoethyl)-5-(3-isoxazol-3-ylureido)-1H-indazole-3-carboxamide]
- IC50: < 1000 nM

Structure (SMILES): NC(=O)c1nn(CC(=O)N2[C@@H]3C[C@@H]3C[C@H]2C(=O)Nc2cccc(Br)n2)c2ccc(NC(=O)N3CCCC(F)(F)C3)cc12 [Compound 34, 1-(2-((1R,3S,5R)-3-(6-bromopyridin-2-ylcarbamoyl)-2-azabicyclo[3.1.0]hexan-2-yl)-2-oxoethyl)-5-(3,3-difluoropiperidine-1-carboxamido)-1H-indazole-3-carboxamide]
- IC50: < 1000 nM

Structure (SMILES): COC(=O)C1CCN(C(=O)c2ccc3c(C(C)=O)cn(CC(=O)N4C[C@H](F)C[C@H]4C(=O)NCc4cccc(Cl)c4F)c3c2)C1 (stereo partly drawn) [Compound 51, methyl 1-(3-acetyl-1-(2-((2S,4R)-2-(3-chloro-2-fluorobenzylcarbamoyl)-4-fluoropyrrolidin-1-yl)-2-oxoethyl)-1H-indole-6-carbonyl)pyrrolidine-3-carboxylate]
- IC50: < 1000 nM

Structure (SMILES): CC(=O)c1cn(CC(=O)N2C[C@H](F)C[C@H]2C(=O)NCc2cccc(Cl)c2F)c2cc(C(=O)N[C@H]3CCN(C(=O)OC(C)(C)C)C3)ccc12 [Compound 44, (S)-tert-butyl 3-(3-acetyl-1-(2-((2S,4R)-2-(3-chloro-2-fluorobenzylcarbamoyl)-4-fluoropyrrolidin-1-yl)-2-oxoethyl)-1H-indole-6-carboxamido) pyrrolidine-1-carboxylate]
- IC50: < 1000 nM

Structure (SMILES): CC(=O)c1cn(CC(=O)N2C[C@H](F)C[C@H]2C(=O)NCc2cccc(Cl)c2F)c2ccc(NC(=O)Nc3ccon3)cc12 [Compound 19, (2S,4R)-1-(2-(3-acetyl-5-(3-isoxazol-3-ylureido)-1H-indol-1-yl)acetyl)-N-(3-chloro-2-fluorobenzyl)-4-fluoropyrrolidine-2-carboxamide]
- IC50: < 1000 nM

Structure (SMILES): CC(=O)c1cn(CC(=O)N2C[C@H](F)C[C@H]2C(=O)NCc2cccc(Cl)c2F)c2ccc(NC(=O)NC3CC3)cc12 [Compound 1, (2S,4R)-1-(2-(3-acetyl-5-(3-cyclopropylureido)-1H-indol-1-yl)acetyl)-N-(3-chloro-2-fluorobenzyl)-4-fluoropyrrolidine-2-carboxamide]
- IC50: < 1000 nM

Structure (SMILES): NC(=O)c1nn(CC(=O)N2[C@@H]3C[C@@H]3C[C@H]2C(=O)Nc2cccc(OC(F)(F)F)c2F)c2ccc(NC(=O)N3CCCC(F)(F)C3)cc12 [Compound 27, 5-(3,3-difluoropiperidine-1-carboxamido)-1-(2-((1R,3S,5R)-3-(2-fluoro-3-(trifluoromethoxy)phenylcarbamoyl)-2-azabicyclo[3.1.0]hexan-2-yl)-2-oxoethyl)-1H-indazole-3-carboxamide]
- IC50: < 1000 nM

Structure (SMILES): CC(=O)c1cn(CC(=O)N2C[C@H](F)C[C@H]2C(=O)Nc2cccc(-c3ccccc3Cl)c2F)c2ccc(NC(=O)C3CCC(F)(F)C3)cc12 (stereo partly drawn) [Compound 35, (2S,4R)-1-(2-(3-acetyl-5-(3,3-difluorocyclopentanecarboxamido)-1H-indol-1-yl)acetyl)-N-(2′-chloro-2-fluorobiphenyl-3-yl)-4-fluoropyrrolidine-2-carboxamide]
- IC50: < 1000 nM
